The structures appear in SMILES notation. Where “and” joins values, the source holds several entries; their conditions need not be identical. Equal entries are not always repeated. Toxic doses and inconclusive results are not listed.

In this experiment the test system is CD2F1 mice, L1210 leukemia ip, survival T/C. Description: NCI In Vivo Anticancer Drug Screen. Data for tumor model L1210 Leukemia (intraperitoneal) in CD2F1 (CDF1) mice. The following applies: higher = longer survival. Summed up:
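Transplantable tumor in mice; compound-treated vs vehicle-treated groups. Read-out = treated/control ratio of the measured endpoint.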

Setting [1] is: endpoint: mean survival time, dose: 100.0 mg/kg/injection, schedule: Q01DX009 (ip), vehicle: saline with Tween-80.
[2] abbreviates: endpoint: mean survival time, dose: 100.0 mg/kg/injection, schedule: Q04DX003 (ip), vehicle: saline with Tween-80.
Where [3] appears, read: endpoint: mean survival time, dose: 200.0 mg/kg/injection, schedule: Q01DX009 (ip), vehicle: saline with Tween-80.
Where [4] appears, read: endpoint: mean survival time, dose: 200.0 mg/kg/injection, schedule: Q04DX003 (ip), vehicle: saline with Tween-80.
Setting [5] is: endpoint: mean survival time, dose: 400.0 mg/kg/injection, schedule: Q04DX003 (ip), vehicle: saline with Tween-80.

As for `CCCCn1c(C)nc2c(N)cc(C(F)(F)F)cc21`, the T/C (endpoint: mean survival time, dose: 12.5 mg/kg/injection, schedule: Q01DX009 (ip), vehicle: Klucel (hydroxypropylcellulose) (HPC)) is 100 % of control; the T/C (endpoint: mean survival time, dose: 25.0 mg/kg/injection, schedule: Q01DX001 (ip), vehicle: Klucel (hydroxypropylcellulose) (HPC)) was 96 % of control; the T/C (endpoint: mean survival time, dose: 25.0 mg/kg/injection, schedule: Q01DX009 (ip), vehicle: Klucel (hydroxypropylcellulose) (HPC)) is 91 % of control; the T/C (endpoint: mean survival time, dose: 25.0 mg/kg/injection, schedule: Q04DX003 (ip), vehicle: Klucel (hydroxypropylcellulose) (HPC)) was 96 % of control; the T/C (endpoint: mean survival time, dose: 50.0 mg/kg/injection, schedule: Q01DX001 (ip), vehicle: Klucel (hydroxypropylcellulose) (HPC)) was 102 % of control; the T/C (endpoint: mean survival time, dose: 50.0 mg/kg/injection, schedule: Q01DX009 (ip), vehicle: Klucel (hydroxypropylcellulose) (HPC)) is 100 % of control. The T/C by setting is: (endpoint: mean survival time, dose: 50.0 mg/kg/injection, schedule: Q04DX003 (ip), vehicle: Klucel (hydroxypropylcellulose) (HPC)) 100 % of control; (endpoint: mean survival time, dose: 100.0 mg/kg/injection, schedule: Q01DX001 (ip), vehicle: Klucel (hydroxypropylcellulose) (HPC)) 97 % of control; (endpoint: mean survival time, dose: 100.0 mg/kg/injection, schedule: Q01DX009 (ip), vehicle: Klucel (hydroxypropylcellulose) (HPC)) 102 % of control; (endpoint: mean survival time, dose: 100.0 mg/kg/injection, schedule: Q04DX003 (ip), vehicle: Klucel (hydroxypropylcellulose) (HPC)) 93 % of control; (endpoint: mean survival time, dose: 200.0 mg/kg/injection, schedule: Q01DX001 (ip), vehicle: Klucel (hydroxypropylcellulose) (HPC)) 94 % of control; (endpoint: mean survival time, dose: 200.0 mg/kg/injection, schedule: Q04DX003 (ip), vehicle: Klucel (hydroxypropylcellulose) (HPC)) 100 % of control.

On to `O=[N+]([O-])c1ccc(/C=N/O)o1`, for which the T/C (endpoint: mean survival time, dose: 12.5 mg/kg/injection, schedule: Q01DX001 (ip), vehicle: saline) was 93 % of control and 101 % of control; the T/C (endpoint: mean survival time, dose: 25.0 mg/kg/injection, schedule: Q01DX001 (ip), vehicle: saline) is 102 % of control; the T/C (endpoint: mean survival time, dose: 50.0 mg/kg/injection, schedule: Q01DX001 (ip), vehicle: saline) is 97 % of control and 102 % of control; the T/C (endpoint: mean survival time, dose: 100.0 mg/kg/injection, schedule: Q01DX001 (ip), vehicle: saline) was 100 % of control and 101 % of control and 102 % of control; the T/C (endpoint: mean survival time, dose: 150.0 mg/kg/injection, schedule: Q01DX001 (ip), vehicle: saline) was 100 % of control.

For the molecule `COC(=O)C1OC1(C)c1ccc(C)cc1` (stereo not drawn), the T/C runs as follows: (endpoint: mean survival time, dose: 25.0 mg/kg/injection, schedule: Q01DX009 (ip), vehicle: saline with Tween-80) 89 % of control; (endpoint: mean survival time, dose: 50.0 mg/kg/injection, schedule: Q01DX009 (ip), vehicle: saline with Tween-80) 94 % of control; under setting [1], 93 % of control.

As to `O=[N+]([O-])CC(OCCO)C(Cl)(Cl)Cl` (stereo not drawn), the T/C was 97 % of control (endpoint: mean survival time, dose: 6.25 mg/kg/injection, schedule: Q01DX009 (ip), vehicle: acetone); 102 % of control (endpoint: mean survival time, dose: 12.5 mg/kg/injection, schedule: Q01DX009 (ip), vehicle: acetone); 90 % of control (endpoint: mean survival time, dose: 12.5 mg/kg/injection, schedule: Q04DX003 (ip), vehicle: acetone); 97 % of control (endpoint: mean survival time, dose: 25.0 mg/kg/injection, schedule: Q01DX009 (ip), vehicle: acetone); 87 % of control (endpoint: mean survival time, dose: 25.0 mg/kg/injection, schedule: Q04DX003 (ip), vehicle: acetone).

Take `BrC1(Br)C2CCCCCCC21` (stereo not drawn): the T/C under setting [1] is 91 % of control; the T/C under setting [2] was 87 % of control; the T/C under setting [3] was 87 % of control; the T/C under setting [4] was 98 % of control; the T/C under setting [5] was 96 % of control.

`[N-]=[N+]=NC1CCOC(n2cnc3c(N)ncnc32)C1O` (stereo not drawn): the T/C is 102 % of control (endpoint: median survival time, dose: 25.0 mg/kg/injection, schedule: Q01DX005 (ip), vehicle: Klucel (hydroxypropylcellulose) (HPC)); 101 % of control (endpoint: median survival time, dose: 25.0 mg/kg/injection, schedule: Q01DX005 (ip), vehicle: Klucel + Tween-80); 100 % of control (endpoint: median survival time, dose: 50.0 mg/kg/injection, schedule: Q01DX005 (ip), vehicle: Klucel (hydroxypropylcellulose) (HPC)); 101 % of control (endpoint: median survival time, dose: 50.0 mg/kg/injection, schedule: Q01DX005 (ip), vehicle: Klucel + Tween-80); 108 % of control (endpoint: median survival time, dose: 100.0 mg/kg/injection, schedule: Q01DX005 (ip), vehicle: Klucel (hydroxypropylcellulose) (HPC)); 102 % of control (endpoint: median survival time, dose: 100.0 mg/kg/injection, schedule: Q01DX005 (ip), vehicle: Klucel + Tween-80). Further, the T/C runs as follows: (endpoint: median survival time, dose: 200.0 mg/kg/injection, schedule: Q01DX005 (ip), vehicle: Klucel (hydroxypropylcellulose) (HPC)) 102 % of control; (endpoint: median survival time, dose: 200.0 mg/kg/injection, schedule: Q01DX005 (ip), vehicle: Klucel + Tween-80) 102 % of control.

On to `CC(=O)Nc1ccc2c(c1)CCCC2`, for which the T/C reads like this: (endpoint: mean survival time, dose: 100.0 mg/kg/injection, schedule: Q04DX002 (ip), vehicle: saline with Tween-80) 101 % of control; (endpoint: mean survival time, dose: 200.0 mg/kg/injection, schedule: Q04DX002 (ip), vehicle: saline with Tween-80) 104 % of control; (endpoint: mean survival time, dose: 400.0 mg/kg/injection, schedule: Q04DX002 (ip), vehicle: saline with Tween-80) 104 % of control.

On to `O=C(O)c1ccccc1C(=O)Nc1ccc(Cl)cc1`, for which the T/C reads like this: under setting [1], 95 % of control; under setting [2], 94 % of control; under setting [3], 89 % of control; under setting [4], 96 % of control; under setting [5], 86 % of control.

As to `Cc1cc(NC(=O)Oc2ccccc2)ccc1S(=O)(=O)F`, the T/C reads like this: (endpoint: mean survival time, dose: 50.0 mg/kg/injection, schedule: Q01DX009 (ip), vehicle: saline) 98 % of control; (endpoint: mean survival time, dose: 100.0 mg/kg/injection, schedule: Q01DX009 (ip), vehicle: saline) 94 % of control; (endpoint: mean survival time, dose: 200.0 mg/kg/injection, schedule: Q01DX009 (ip), vehicle: saline) 98 % of control.

With `O=C(O)Cc1ccc(Br)cc1[N+](=O)[O-]`, the T/C reads like this: (endpoint: mean survival time, dose: 100.0 mg/kg/injection, schedule: Q01DX001 (ip), vehicle: other) 104 % of control; (endpoint: mean survival time, dose: 200.0 mg/kg/injection, schedule: Q01DX001 (ip), vehicle: other) 101 % of control; (endpoint: mean survival time, dose: 400.0 mg/kg/injection, schedule: Q01DX001 (ip), vehicle: other) 98 % of control.

Regarding `O=c1cc(CCl)nc2c3ncn(C4OC(CO)C(O)C4O)c3ncn12` (stereo not drawn), the T/C (endpoint: median survival time, dose: 12.5 mg/kg/injection, schedule: Q01DX005 (ip), vehicle: saline with Tween-80) was 105 % of control; the T/C (endpoint: median survival time, dose: 25.0 mg/kg/injection, schedule: Q01DX005 (ip), vehicle: saline with Tween-80) is 102 % of control; the T/C (endpoint: median survival time, dose: 50.0 mg/kg/injection, schedule: Q01DX005 (ip), vehicle: saline with Tween-80) is 98 % of control; the T/C (endpoint: median survival time, dose: 100.0 mg/kg/injection, schedule: Q01DX005 (ip), vehicle: saline with Tween-80) is 95 % of control; the T/C (endpoint: median survival time, dose: 200.0 mg/kg/injection, schedule: Q01DX005 (ip), vehicle: saline with Tween-80) was 98 % of control.

As for `CN(C)Cc1cc(O)cc(CN(C)C)c1O`, the T/C (endpoint: mean survival time, dose: 75.0 mg/kg/injection, schedule: Q01DX001 (ip), vehicle: other) is 98 % of control; the T/C (endpoint: mean survival time, dose: 150.0 mg/kg/injection, schedule: Q01DX001 (ip), vehicle: other) is 96 % of control; the T/C (endpoint: mean survival time, dose: 300.0 mg/kg/injection, schedule: Q01DX001 (ip), vehicle: other) is 98 % of control.

In the case of `CC(=O)Oc1ccc(/C=N/NC(N)=S)nc1`, the T/C is 160 % of control (endpoint: mean survival time, dose: 37.5 mg/kg/injection, schedule: Q01DX009 (ip), vehicle: saline with Tween-80); 152 % of control (endpoint: mean survival time, dose: 75.0 mg/kg/injection, schedule: Q01DX009 (ip), vehicle: saline with Tween-80); 165 % of control (endpoint: mean survival time, dose: 150.0 mg/kg/injection, schedule: Q01DX009 (ip), vehicle: saline with Tween-80).

Consider `O=C(CCN1CCCCC1)c1ccc(C(F)(F)F)cc1`, for which the T/C by setting is: (endpoint: mean survival time, dose: 3.13 mg/kg/injection, schedule: Q01DX009 (ip), vehicle: water) 90 % of control; (endpoint: mean survival time, dose: 6.25 mg/kg/injection, schedule: Q01DX009 (ip), vehicle: water) 90 % of control.

Regarding `OC(Cc1ccnc2ccccc12)C(Cl)(Cl)Cl` (stereo not drawn), the T/C runs as follows: (endpoint: mean survival time, dose: 100.0 mg/kg/injection, schedule: Q04DX003 (ip), vehicle: saline) 103 % of control; (endpoint: mean survival time, dose: 200.0 mg/kg/injection, schedule: Q04DX003 (ip), vehicle: saline) 103 % of control; (endpoint: mean survival time, dose: 400.0 mg/kg/injection, schedule: Q04DX003 (ip), vehicle: saline) 97 % of control.

The values are drawn from PubChem BioAssay AID256 (DTP/NCI, 2004).
